Results taken from US12320799B2, “Methods of measuring signaling pathway activity for selection of therapeutic agents” (Celcuity Inc., priority 2017, dated 2025).

Columns and labels:
Assay type in all cases: cell-based, human
[1] = tested on: c-Met signaling; assay: CELx ex vivo test of C21 sample agonized only by HGF; details: C21 cell sample agonized only by HGF
Description: (§1) A HER2+ tumor cell sample, C21, was tested using essentially the same methods described in Examples 1 and 3 above to evaluate the status of the c-Met, EGFR, HER2 and HER3 pathways. […] Thus, this cell sample was suitable to assess whether cells found to be responsive to c-Met and EGFR inhibitors ex vivo in the CELx test would respond to these same inhibitors when another portion of the same cell sample was implanted in a xenograft mouse model.
(§2) This finding is not related to the receptor or gene amplification status of either receptor, nor observable when signaling activity is measured in isolation. This highlights the advantages of evaluating multiple signaling pathways simultaneously in live cells.

[2] = tested on: HER family signaling pathways and the c-Met signaling pathway; assay: CELx ex vivo test of C21 sample simultaneously agonized with NRG1, EGF and HGF; details: C21 cell sample simultaneously agonized with NRG1, EGF and HGF
Description: as §1, §2

[3] = tested on: FLT3 signaling pathway; assay: CELx multiple pathway test, impedance biosensor cell adhesion, FL/Gilteritnib pair; details: activator FL
Text: Biosensor and transducer: A 96-well impendence E-Plate (ACEA, San Diego, CA) was placed onto an xCELLigence RTCA MP Station impendence biosensor (ACEA, San Diego, CA). The biosensor measured simultaneously the impedance of every well. The change in impedance for a particular well is proportional to the number of cells and type of attachment the cells have with the impedance microplate. Changes in impedance indicate a response to perturbation of these small cell populations. Coatings: The 96-E-Plate were wells were coated with fibronectin and or collagen. Collagen is purchased from Advanced BioMatrix (Carlsbad, CA) and fibronectin from Sigma-Aldrich (St. Louis, MO). Tissue and cell samples: A total of 18 samples of human tumor cells from breast, lung, colon, ovarian, kidney, bladder cancer were studied. For each of these six different cancer types, tumor cell samples from three different patients were tested. Any biomarkers that are used to guide selection of targeted therapy are listed in Table 18 for each patient if they were present. Signaling Pathways activator agent and targeted therapeutic pairs: Eleven different signaling pathways were studied in each human tumor cell sample using […] signaling pathway activator agent and targeted therapeutic pairs. Each of the signaling pathway activator agent and targeted therapeutic pairs affect the same signaling pathway. Each of the signaling pathway activator agents is a well-characterized and specific agonist of its associated signaling pathway and each of the targeted therapeutic agents is a well-characterized and specific antagonist of the same associated signaling pathway. The signaling pathway activator agents and targeted therapeutics used to characterize the activity level of the associated signaling pathway are summarized in Table 16 below:
Other Reagents: Standard media antibiotics (e.g. penicillin, streptomycin) and other buffers were purchased and used as delivered from ATCC (Manassas, VA, USA) or Life Technologies (Grand Island, NY). Procedure: For each test of a patient cell sample with a pair of signaling pathway activator and targeted therapeutic agents, six wells were seeded with approximately 15,000 cells in 120 uL culture media. Twenty microliters of the targeted therapeutic agent were added to two wells of each patient's cells and 20 microliters of standard media were added to the other four wells for each patient 18 hours in advance of addition of the signaling pathway activator agent. Signaling pathway stimulation was initiated with the addition of 20 ul of the signaling pathway activator agent in the two wells that received a targeted therapeutic agent and in two additional wells for each patient's set of cells without the targeted therapeutic. The impedance recording of attachment and adhesion change was performed at 37° C., 5% C02. Data was recorded on a continuous basis throughout the test, where the data presented is from the initial baseline level of cell attachment compared to the subsequent effects following the targeted therapeutic agent and the signaling pathway activator agent additions on the 18 different patient samples.
For each of the 18 patient samples, up to 11 different signaling pathways were tested. The output value represents the difference between the amount of cell adhesion change resulting from addition of the signaling pathway activator agent and the amount of cell adhesion change resulting from addition of the targeted therapeutic agent.

CN1CCC(COc2cnc(-c3cccc(Cn4nc(-c5cccc(C#N)c5)ccc4=O)c3)nc2)CC1 [tepotinib]
percentage of c-Met signaling activity inhibited [1]: ~100%
total signaling inhibited [2]: less than 10%

CCc1nc(C(N)=O)c(Nc2ccc(N3CCC(N4CCN(C)CC4)CC3)c(OC)c2)nc1NC1CCOCC1 [Gilteritnib]
output value ([3]; C2 breast tumor cells): 7
output value ([3]; C21 breast tumor cells): 9
output value ([3]; C34 breast tumor cells): 10
output value ([3]; C54 ovarian tumor cells): 10
output value ([3]; C77 ovarian tumor cells): 6
